Source: patent US20150119422A1, “SIMETHICONE FORMULATION” (DISPHAR INTERNATIONAL B.V., priority 2011, published 2015)
Where a name gives a salt, the structure may show the parent alone.

Type: physicochemical
Details: pH range of 1 to 7
Protocol: Dissolution studies for determining release of the active ingredient at various pHs were carried out using a TDT-08 L dissolution apparatus from Electrolab®.
The above-mentioned tablets were studied for release profile, at 30 minutes, in solutions of varied pH such as 1.2, 4.5 and 6.8 respectively in aqueous solutions of 0.1 N HCl, acetate buffer and phosphate buffer.

CN(C)C(=O)C(CCN1CCC(O)(c2ccc(Cl)cc2)CC1)(c1ccccc1)c1ccccc1 [loperamide hydrochloride]
pH dependence of release / dissolution: pH dependent dissolution characteristics
